Measured values taken from US8710064B2, “2-aryl-4-quinazolinones and their pharmaceutical compositions” (China Medical University, priority 2011, dated 2014).

How the values were obtained:
HT29-5FUR cells = assay: MTT cell viability assay, HT29-5FUR cells; assay type: cell-based, human; conditions: 25, 50, 100 and 200 nM for 24 and 48 hours
Experimental: HT29-5FUR cell line (human colon adenocarcinoma) provided by Dr. Jai-Sing Yang (China Medical University, Taiwan) was cultured in RPMI-1640 medium (Invitrogen, Carlsbad, Calif., USA) supplemented with 10% fetal bovine serum, 2 mM L-glutamine, 100 U/ml penicillin, and 100 μg/ml streptomycin.
Cells (1×10^4 cells/well) in 96-well plates were exposed to test MJ-66, and 0.1% DMSO in media served as a vehicle control. After 24 and 48 hr-incubations, […] MTT (0.5 mg/mL) solution was added to each well, the plate was incubated at 37° C. for 4 hours. Then, […] 0.04 N HCl in isopropanol was added and the absorbance at 570 nm was measured for each well. The cell survival rate was expressed as % of control. All results were performed from three independent experiments.
The growth inhibition effects of MJ-66 on HT29-5FUR cells were investigated. For cell viability assay, HT29-5FUR cells were cultured and treated with 0, 25, 50, 100 and 200 nM MJ-66 and the percentages of viable cells were detected by MTT assay described in “General materials and methods”.

C6 glioma cells = assay: trypan blue exclusion cell death assay, C6 glioma cells; assay type: cell-based, rat; conditions: 60 nM, at the 72nd hour, p<0.05 versus control
Experimental: (§1) Cell viability was also determined by trypan-blue exclusion assay. Cells were seeded in 6-well plates (2×10^4/well) for trypan blue exclusion assay, and incubated for 24 hours at 37° C. Culture medium containing test compound or DMSO (0.006%) was added to each well, and cells were incubated at 37° C. At indicated time points (0, 24, 48, 72 and 96 hr), cells were suspended with 0.05% trypsin-EDTA, and stained with trypan-blue dye (0.4%) (Sigma). The cell viability was evaluated by the percentage of death relative to the total cell, and cell growth curve was determined by number of live cells relative to the total number of cells.
To investigate the glioma cell death induced by MJ-66, cell viability was assessed by trypan blue exclusion assay. C6 and U87 glioma cells treated with MJ-66 (30, 60, 90 nM) or DMSO (0.009%) for 0, 24, 48, 72 and 96 hours (hr) were observed under bright field microscope (FIG. 4A). The percentages of cell death and cell growth curve were determined by trypan blue assay followed by cell counting (mean±SEM, n=3). Relative to total cell number, trypan blue positive cells were defined as dead cells.

[1] = test system: human glia cell line SVGP12; assay: MTS cell viability assay, normal glia cell line SVGP12; assay type: cell-based; conditions: 0.00625-1 μM
Experimental: The human glioma cell lines U87, U251, T98G, U373, and rat glioma cell line RT2 provided by Dr. Michael Hsiao (Genomics Research Center, Academia Sinica, Taiwan) were cultured in Dulbecco's Modified Eagle medium (DMEM) (Caisson) supplemented with 10% fetal bovine serum (FBS) (Sigma-Aldrich), 2 mM L-glutamine (Caisson), 100 U/ml penicillin, and 100 μg/ml streptomycin (Caisson). The rat glioma C6 cell line provided by Dr. Shun-Fen Tzeng (National Cheng Kung University, Taiwan) was cultured in DMEM/F12 (Caisson) supplemented with 10% fetal bovine serum, 2 mM L-glutamine, 100 U/ml penicillin, and 100 μg/ml streptomycin. […] Cell proliferation was determined by MTS (tetrazolium compound, 3-(4,5-dimethylthiazol-2-yl)-5-(3-carboxymethoxyphenyl)-2-(4-sulfophenyl)-2H-tetrazolium) assay (Promega). […] The absorbance of soluble formazan was measured at 490 nm with microplate reader (Molecular device). The cell viability was determined by the percentage of the absorption relative to untreated control. […] To investigate the influence of MJ-66 on normal glia such as human glia cell line SVGP12 and rat primary glia cells, cells were treated with different concentrations of MJ-66 in vitro (0.00625, 0.0125, 0.025, 0.05, 0.1 and 1 μM) for different time durations (0, 6, 12 and 24 hours) and the cell viability was assessed by MTS assay. […]

[2] = test system: M21, CH27, H460, Hep3B and HSC-3 cells; assay: trypan blue exclusion assay, cancer cell panel (summary); assay type: cell-based; conditions: summary of Table 2
Experimental: as §1
The anti-proliferation effects of Compounds 17-31 on M21, CH27, H460, Hep3B and HSC-3 cells were evaluated by the trypan blue exclusion assay.

O=c1[nH]c(-c2cccc3ccccc23)nc2ccc(N3CCCC3)cc12 [Compound 23, 6-(Pyrrolidin-1-yl)-2-(naphthalen-1-yl)quinazolin-4-one]
cell number of HT29-5FUR relative to control (HT29-5FUR cells): dose-dependent decreases
percentage of dead cells, C6 (C6 glioma cells): significantly induced
cell viability of SVGP12 [1]: inhibited
cytotoxic effects toward cancer cells [2]: exhibited cytotoxic effects
